Test results as given in ChEMBL document CHEMBL1201862, “PubChem BioAssay data set” (2004).
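Method: 48-hour compound exposure of cells in 96-well plates, five concentrations, linear interpolation of endpoints. At the GI50, growth is halved.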 Calls of active or inactive are those of the source. Cut-off read from the data, not from the text of the source: active = GI50 up to about 1.1 µM and inactive = higher.

What was measured:
Experiment in all cases: NCI tumour cell line growth inhibition, 48 h
SF-295 = tested on: SF-295
PC-3 = tested on: PC-3
NCI-H23 = tested on: NCI-H23
SK-MEL-2 = tested on: SK-MEL-2
Hs-578T = tested on: Hs-578T
HCC 2998 = tested on: HCC 2998
NCI-H460 = tested on: NCI-H460
NCI/ADR-RES = tested on: NCI/ADR-RES
M14 = tested on: M14
Malme-3M = tested on: Malme-3M
T47D = tested on: T47D
IGROV-1 = tested on: IGROV-1
CCRF-CEM = tested on: CCRF-CEM
UACC-257 = tested on: UACC-257
OVCAR-3 = tested on: OVCAR-3
A549 = tested on: A549
HCT-116 = tested on: HCT-116
MDA-MB-231 = tested on: MDA-MB-231
RPMI-8226 = tested on: RPMI-8226
LOX IMVI = tested on: LOX IMVI

Measured: GI50

O=C(O)c1ccccc1/N=N/c1c(O)c(S(=O)(=O)O)cc2cc(S(=O)(=O)O)ccc12
inactive: SF-295 > 100 µM | PC-3 > 100 µM | NCI-H23 > 100 µM | SK-MEL-2 > 100 µM | Hs-578T > 100 µM | HCC 2998 > 100 µM | NCI-H460 > 100 µM | NCI/ADR-RES > 100 µM | M14 > 100 µM | Malme-3M > 100 µM | T47D > 100 µM | IGROV-1 > 100 µM | CCRF-CEM > 100 µM | UACC-257 > 100 µM | OVCAR-3 > 100 µM | A549 > 100 µM | HCT-116 > 100 µM | MDA-MB-231 > 100 µM

CC(CCN)(CCN)[N+](=O)[O-]
inactive: RPMI-8226 > 100 µM | SF-295 > 100 µM | PC-3 > 100 µM | NCI-H23 > 100 µM | SK-MEL-2 > 100 µM | Hs-578T > 100 µM | NCI-H460 > 100 µM | NCI/ADR-RES > 100 µM | M14 > 100 µM | LOX IMVI > 100 µM | Malme-3M > 100 µM | T47D > 100 µM | IGROV-1 > 100 µM | CCRF-CEM > 100 µM | UACC-257 > 100 µM | OVCAR-3 > 100 µM | A549 > 100 µM | HCT-116 > 100 µM | MDA-MB-231 > 100 µM

N=C(CCl)NC1CN2CCC1CC2 (configuration not stated)
inactive: RPMI-8226 > 100 µM | SF-295 > 100 µM | PC-3 > 100 µM | NCI-H23 > 100 µM | SK-MEL-2 > 100 µM | Hs-578T > 100 µM | NCI-H460 > 100 µM | NCI/ADR-RES > 100 µM | M14 > 100 µM | LOX IMVI 34.1 µM | Malme-3M > 100 µM | T47D 56.1 µM | IGROV-1 > 100 µM | CCRF-CEM 18.6 µM | UACC-257 > 100 µM | OVCAR-3 > 100 µM | A549 > 100 µM | HCT-116 > 100 µM | MDA-MB-231 > 100 µM

O=C(O)CN1CCN2CCCCCN(CC1)CCN(CC(=O)O)CC2
inactive: RPMI-8226 > 100 µM | SF-295 > 100 µM | PC-3 > 100 µM | SK-MEL-2 > 100 µM | Hs-578T 31.8 µM | NCI-H460 91.4 µM | NCI/ADR-RES 22.1 µM | M14 > 100 µM | LOX IMVI > 100 µM | Malme-3M 22.4 µM | T47D > 100 µM | IGROV-1 > 100 µM | CCRF-CEM > 100 µM | UACC-257 > 100 µM | OVCAR-3 > 100 µM | A549 > 100 µM | HCT-116 73.8 µM | MDA-MB-231 > 100 µM

COC(=O)C1(NC(=O)C(N)CC(=O)O)C(C)C1C (configuration not stated)
inactive: RPMI-8226 > 100 µM | SF-295 > 100 µM | PC-3 > 100 µM | NCI-H23 > 100 µM | SK-MEL-2 > 100 µM | Hs-578T > 100 µM | NCI-H460 > 100 µM | NCI/ADR-RES > 100 µM | M14 > 100 µM | LOX IMVI > 100 µM | Malme-3M > 100 µM | T47D > 100 µM | IGROV-1 > 100 µM | CCRF-CEM > 100 µM | UACC-257 > 100 µM | OVCAR-3 > 100 µM | A549 > 100 µM | HCT-116 > 100 µM | MDA-MB-231 > 100 µM

Cc1ccc2c3c(cnc2n1)C(=O)OCCN3C
inactive: SF-295 > 100 µM | PC-3 > 100 µM | NCI-H23 > 100 µM | SK-MEL-2 > 100 µM | Hs-578T > 100 µM | HCC 2998 > 100 µM | NCI-H460 > 100 µM | NCI/ADR-RES > 100 µM | M14 > 100 µM | LOX IMVI > 100 µM | T47D > 100 µM | IGROV-1 > 100 µM | CCRF-CEM > 100 µM | UACC-257 > 100 µM | OVCAR-3 > 100 µM | A549 > 100 µM | HCT-116 > 100 µM | MDA-MB-231 > 100 µM

CC1(C)CC[C@]2(C)[C@@H](O)C[C@]3(C)C(=CC[C@@H]4[C@@]5(C)CC[C@H](O)C(C)(C)[C@@H]5CC[C@]43C)[C@@H]2C1
inactive: SF-295 29.4 µM | PC-3 29 µM | NCI-H23 29.4 µM | SK-MEL-2 26.4 µM | Hs-578T 24.4 µM | NCI-H460 41.2 µM | NCI/ADR-RES 40 µM | M14 93.1 µM | LOX IMVI 16.4 µM | Malme-3M 29.4 µM | T47D 9.79 µM | IGROV-1 35.9 µM | CCRF-CEM > 100 µM | UACC-257 49.5 µM | OVCAR-3 65.2 µM | A549 31.7 µM | HCT-116 41.5 µM | MDA-MB-231 16.8 µM

Cc1ccc(Nc2nc(=O)c3c4ccccc4n(C(=O)OC(C)(C)C)c3s2)cc1
inactive: RPMI-8226 17.8 µM | SF-295 23 µM | PC-3 29 µM | NCI-H23 23.1 µM | SK-MEL-2 20.7 µM | Hs-578T 33.2 µM | NCI-H460 15.7 µM | NCI/ADR-RES 10.6 µM | M14 14.7 µM | LOX IMVI 18.7 µM | Malme-3M 28.4 µM | T47D 39.2 µM | IGROV-1 21.9 µM | CCRF-CEM 30.3 µM | UACC-257 51.1 µM | OVCAR-3 23.1 µM | A549 28.8 µM | MDA-MB-231 33.1 µM

NC(=S)NNCC(=O)CC(O)(C(F)(F)F)C(F)(F)Cl (configuration not stated)
inactive: RPMI-8226 > 100 µM | SF-295 > 100 µM | PC-3 > 100 µM | NCI-H23 > 100 µM | SK-MEL-2 > 100 µM | Hs-578T > 100 µM | NCI-H460 63.2 µM | NCI/ADR-RES > 100 µM | M14 > 100 µM | LOX IMVI > 100 µM | Malme-3M > 100 µM | T47D 64.7 µM | IGROV-1 > 100 µM | CCRF-CEM > 100 µM | UACC-257 > 100 µM | OVCAR-3 > 100 µM | A549 > 100 µM | HCT-116 > 100 µM | MDA-MB-231 > 100 µM

COc1c(-c2nc3ccc(N4CCN(C)CC4)cc3[nH]2)cc(OC)c2[nH]c(COC(C)=O)nc12
inactive: RPMI-8226 34.7 µM | SF-295 71.8 µM | PC-3 37.1 µM | NCI-H23 65.9 µM | SK-MEL-2 45.9 µM | Hs-578T > 100 µM | NCI-H460 43.1 µM | NCI/ADR-RES > 100 µM | M14 19.6 µM | LOX IMVI 30.8 µM | Malme-3M 25.1 µM | T47D 24.8 µM | IGROV-1 > 100 µM | CCRF-CEM 29.2 µM | UACC-257 53.5 µM | OVCAR-3 > 100 µM | A549 62.1 µM | HCT-116 32.4 µM | MDA-MB-231 34.2 µM

O=C(CC1C=CCS1(=O)=O)NCc1ccccc1 (configuration not stated)
inactive: SF-295 > 100 µM | PC-3 > 100 µM | NCI-H23 > 100 µM | Hs-578T > 100 µM | HCC 2998 > 100 µM | NCI-H460 > 100 µM | NCI/ADR-RES > 100 µM | M14 > 100 µM | LOX IMVI > 100 µM | T47D > 100 µM | IGROV-1 > 100 µM | CCRF-CEM > 100 µM | UACC-257 > 100 µM | OVCAR-3 > 100 µM | A549 > 100 µM | HCT-116 > 100 µM | MDA-MB-231 > 100 µM
